{"source": "patent US11459586B2", "about": "“Methods for increasing efficiency of nuclease-mediated gene editing in stem cells” (President and Fellows of Harvard College, priority 2016, dated 2022)", "test_system": "human iPSC", "assay": "Jak2 V617F single base pair editing in hiPSC, HR and NHEJ by MiSeq", "assay_type": "cell-based", "text": "FIGS. 6A-C. Bcl-2 overexpression increases the efficiency of engineering single base pair changes using ssODN donors in human iPSC. FIG. 6A. A sgRNA was designed to target exon 14 of human JAK2. The V617F mutation was encoded within 110 bp ssODN donors (in either the plus or minus orientation) or a plasmid containing 1.9 kb and 1.3 kb flanking homology arms. Small triangles indicate the primer sites for the genotyping PCR reaction outside the ssODN sequence. Plain human iPSC were transfected with 2 μg “Cas9 only sgRNA” or “Cas9 Bcl-2 sgRNA” expression plasmid and/or 10 μM ssODN or 2 μg V617F plasmid donor. 17 days later, cells were harvested for genomic DNA purification. The genomic region around exon 14 was PCR amplified and analyzed by MiSeq. FIG. 6B. […] The percent of MiSeq reads containing the Jak2 V617F mutation (HR) or indel mutations (NHEJ) is indicated together with a plot of bp position along the PCR product versus the number of sequencing reads. […]\nA second round of nested PCR with PCR index primers sold under the trademark NEXTERA™ index primers (IIlumina) was used to add barcodes and remaining adaptor sequences. Both PCR reactions were supplemented with fluorescent dye sold under the trademark SYBR® Green (Invitrogen) and monitored on a quantitative PCR machine to prevent over-amplification. […]"}
{"substance": "Bcl-2: B cell lymphoma 2 protein, anti-apoptotic, overexpressed from lentivirus or Cas9 plasmid", "values": [{"measurement": "increase of absolute recombination frequency (HR)", "setting": "oligo (ssODN) donors, Bcl-2 on the Cas9 plasmid", "value": "2-4 fold"}, {"measurement": "absolute recombination frequency (HR)", "setting": "plasmid donor, Bcl-2 on the Cas9 plasmid (from 25% without)", "value": 39, "unit": "%"}]}
